In patent publication US10925963B2, “Combination artemisinin and chemiluminescent photodynamic therapy and uses therefor” (Washington University, priority 2015, dated 2021):

Tests used:
[1] = tested on: asynchronous 3D7 parasites; assay: Parasite growth of ALA-treated cultures with daily white-light exposure; assay type: cell-based, Plasmodium falciparum
Experimental: Parasite growth was monitored by diluting asynchronous parasites to 0.5% parasitemia and allowing culture expansion with daily or twice daily media changes. […] To assess the light sensitivity of ALA-treated parasites, asynchronous parasites were cultured in 200-500 μM ALA in the absence or presence of 50 μM succinylacetone and subjected to 2-5 minute daily exposures to broad wavelength white light on an overhead projector. Daily parasitemia measurements were plotted as a function of time and fit to an exponential growth equation using Graph Pad Prism 5.0 (Graph Pad Software, Inc., La Jolla, Calif.).
To test the effects of these changes on bulk parasite culture, the present inventors monitored the growth of untreated versus ALA-treated parasites over several days with 2-minute daily exposures to broad-wavelength white light on an overhead projector light box. FIG. 4 depicts growth of asynchronous 3D7 parasites in the presence or absence of 200 μM ALA and 50 μM succinylacetone (SA), with 2-minute exposures to white light on an overhead projector on days 0-2. Parasitemia (percentage of total erythrocytes infected with parasites) as a function of time was fit with an exponential growth equation.

[2] = tested on: heme biosynthesis enzymes in the erythrocyte cytoplasm; assay: LC-MS/MS detection of 13C-labelled PPIX and CPP from 13C-ALA in erythrocyte lysate supernatants; assay type: biochemical; conditions: 50 μM succinylacetone; 200 μM 5-[13C4]-ALA; saponin lysate supernatant, overnight 37° C.
Experimental: Parasites were cultured in 200 μM 5-[^13C4]-ALA for 12-24 hours, harvested by centrifugation, lysed in 0.05% cold saponin, washed in PBS, and extracted with DMSO. Deuteroporphyrin was added as an internal standard, and extracts were analyzed for ^13C-labeled heme, PPIX, and CPPIII using a previously published liquid chromatography-multiple reaction monitoring tandem mass spectrometry assay (Ke, H. et al., J. Biol. Chem. 289, 34827-34837, 2014).
To assess the heme biosynthesis capacity of the erythrocyte cytoplasm, 500 μl packed red blood cells (described previously; Sigala, P. A., et al., J. Biol. Chem. 287, 37793-37807, 2012) were lysed in 20 ml of 0.04% saponin/PBS (0.2 μM filtered) and centrifuged at 25,000×g for 60 minutes to pellet unlysed cells and any organelles. The superficial 15 ml of the lysate supernatant was removed and 0.2 μM filtered, supplemented with 200 μM 5-[^13C4]-ALA in the absence or presence of 50 μM succinylacetone, incubated overnight at 37° C., and analyzed by tandem mass spectrometry as described above.
In these investigations, red porphyrin fluorescence in ALA-treated intraerythrocytic parasites was not limited to the parasitophorous vacuole but was detectable throughout the erythrocyte cytoplasm (FIG. 3A), as expected for host enzyme activity in this compartment and production of PPIX. […]

[3] = tested on: 3D7 (drug sensitive) parasites; assay: Chemiluminescence-based photodynamic therapy (CL-PDT) parasite growth; assay type: cell-based, Plasmodium falciparum; conditions: 50 μM succinylacetone
Experimental: Parasitemia was measured daily as indicated above.
The present inventors tested whether intraerythrocytic parasites might be uniquely susceptible to chemiluminescence-based photodynamic therapy (CL-PDT) (FIG. 9A). Artemisinin and its derivatives are current frontline drugs used for treatment of malaria, usually in combination with a partner drug. To test the efficacy of an artemisinin CL-PDT strategy for treatment of blood-stage malaria, we incubated intraerythrocytic parasites in 50-100 μM ALA with or without luminol and sub-therapeutic doses (≤10% of EC50) of dihyroartemisinin (DHA), with twice-daily media changes.

[4] = tested on: Plasmodium-infected erythrocytes; assay: Fluorescence microscopy of PPIX accumulation in parasite-infected erythrocytes; assay type: cell-based, Plasmodium falciparum; conditions: parasites grown in 200 μM ALA; epifluorescence microscope
Experimental: (§1) Images of live or fixed parasites were acquired on an Axio Imager.M1 epifluorescence microscope (Carl Zeiss Microimaging, Inc.) equipped with a Hamamatsu ORCA-ER digital CCD camera and running Axiovision 4.8 software, as described previously (Sigala, P. A., et al., J. Biol. Chem. 287, 37793-37807, 2012). Live parasite nuclei were stained with 5 μM Hoechst 33342 added immediately prior to image acquisition. For photodynamic imaging studies, parasites were cultured in 200-500 μM ALA in the absence or presence of 50 μM succinylacetone for 6-12 hours prior to visualization. Hemozoin movement in parasite digestive vacuoles were imaged by acquiring 10-20 sequential frames at 1 second intervals on the bright-field channel. Images were cropped and superimposed in Adobe Photoshop and exported as movie files with a 0.1 second frame delay. […]
The present inventors investigated whether ALA treatment could serve as a probe of heme biosynthesis activity in Plasmodium-infected erythrocytes by enabling direct visualization of PPIX production and the cellular consequences of light activation. Untreated parasites imaged on an epifluorescence microscope display only background auto-fluorescence from hemozoin crystals in the parasite digestive vacuole (FIG. 2). […]

[5] = tested on: hemozoin crystals in the parasite digestive vacuole; assay: Hemozoin dynamics in the digestive vacuole after light exposure; assay type: cell-based, Plasmodium falciparum; conditions: 200 μM ALA-treated parasites; fluorescence image acquisition overlapping PPIX excitation
Experimental: as §1
The cytotoxic effects of light-activating PPIX were readily apparent by monitoring the motion of hemozoin crystals that dynamically tumble within the digestive vacuole of individual parasites. […] FIG. 3A depicts bright field and fluorescence microscopy images of untreated and 200 μM ALA-treated parasites. Fluorescence images were acquired with a Zeiss filter set 43 HE (excitation 537-562 nm, emission 570-640 nm). […]

uninfected erythrocytes = assay: Fluorescence microscopy of uninfected erythrocytes incubated in ALA; assay type: cell-based; conditions: 500 μM ALA
Experimental: as §1, with “delay. Immunofluorescence images were acquired by fixing and staining parasites as previously described (Tonkin, C. J., et al., Mol. Biochem. Parasitol 137, 13-21, 2004; Ponpuak, M., et al., Mol. Microbiol. 63, 314-334, 2007). Electron microscopy images were obtained as previously described (Beck., J. R., et al., Nature 511, 592-595, 2014).” for “delay.”
FIG. 7A depicts Bright field and fluorescence (Zeiss filter set 43 HE) images of uninfected erythrocytes incubated in 500 μM ALA before or after electroporation.

SMILES	rescue of photosensitivity of parasite growth in ALA ([1]; 50 μM succinylacetone with 200 μM ALA, 2-minute light exposures)	formation of 13C-labelled PPIX and coproporphyrin III from 13C-ALA [2]	rescue of cytotoxicity of the ALA/luminol/DHA combination [3]	growth of cultures in the presence of light ([1]; 200 μM ALA, 2-minute daily exposures to white light on days 0-2)	blood smear examination of light-exposed cultures ([1]; ALA-treated cultures, 2-minute daily white light)	photosensitivity of growth in ALA after apicoplast disruption ([1]; IPP/doxycycline-treated 3D7 parasites, 200 μM ALA, 2-minute light exposures)	photosensitivity of clonal growth in ALA ([1]; ΔPBGD and ΔCPO 3D7 parasite lines, 200 μM ALA, 2-minute light exposures days 0-2)	porphyrin (PPIX) fluorescence of infected erythrocytes [4]	hemozoin dynamics after light [5]	porphyrin fluorescence of uninfected erythrocytes (uninfected erythrocytes; after electroporation)	porphyrin fluorescence of uninfected erythrocytes (uninfected erythrocytes; without electroporation)
CC(=O)CC(=O)CCC(=O)O [succinylacetone]	fully rescued	fully blocked	could be rescued	–	–	–	–	–	–	–	–
NCC(=O)CCC(=O)O [ALA, 5-aminolevulinic acid]	–	–	–	strongly attenuated by light	predominantly contained pyknotic parasites	remained fully photosensitive	remained fully photosensitive	bright red fluorescence	rapidly ablated by light	robust intracellular porphyrin fluorescence	no detectable porphyrin fluorescence
